Laboratory results reported in US20260123631A1, “NATURAL PORPHIN SALT AND USE THEREOF AS PLANT GROWTH REGULATOR AND PLANT IMMUNITY INDUCER” (NANJING BOSTEC BIOLOGICAL ENGINEERING CO., LTD, priority 2022, published 2026).

Legend:
tobacco = test: Spraying on tobacco to improve a yield; format: in vivo, tobacco (Yunyan 87); settings: 45 L per mu
Description: Method: Four spraying concentrations were set. For each treatment, four plots were adopted, with each plot of 20 m^2. […] During harvesting, sampling was conducted to count a plant height, a leaf length, a leaf width, and a single-leaf weight. All tobacco leaves of the plots were baked into flue-cured tobacco. […]

Phytophthora capsici = test: Pot experiment: resistance of pepper to phytophthora blight; format: in vivo; settings: 2.0 ppm sprayed on pepper seedlings (Sujiao No. 5), inoculated 3 d later
Description: Preparation of Phytophthora capsici zoospores: Fungal discs were collected at an edge of a newly-activated Phytophthora capsici plate. 6 mm fungal discs were picked with a needle and transferred to an empty Petri dish with a diameter of 9 cm, with fungi facing up and 10 fungal discs for each plate. 15 mL of sterilized water was added to the Petri dish, and the Petri dish was placed in a clean bench under light. The water was changed once every 30 min for 3 times in total. The remaining wastewater was removed by a pipette, and then 10 mL of the V8 liquid medium was added. The Petri dish was incubated in a 25° C. incubator for 24 h in the dark to induce the production of a large number of sporangiospores. Then the Petri dish was placed in a 4° C. refrigerator for 30 min and then incubated in a 25° C. incubator for 30 min, such that a large number of zoospores were released. 10 L of a sample was collected, and observed and counted with a hemocytometer under a microscope. The remaining sample was collected for later use.
Pepper seedlings at a 4-6 leaf stage were transplanted, with one plant in each pot. […] 3 replicates were set for each treatment, and 18 pots were adopted for each replicate. After the treatment, the observation was conducted regularly once a day. An incidence rate of pepper was recorded, and a disease index and a control efficiency were counted. […]

mosaic virus = test: Controlling diseases in tobacco by spraying; format: in vivo, tobacco (Yunyan 87); settings: 30 L/mu
Excerpt: For each treatment, 4 plots relatively scattered were selected from the field, with each plot of 50 m^2. An agent was sprayed twice around May 28 and June 4 during a root-spreading stage (12 leaves to 14 leaves) after tobacco transplanting, respectively. A same spraying volume (30 L/mu) was adopted for each treatment. During the spraying operation, each leaf surface should be sprayed evenly without dead corners left.
On July 15, tobacco plants in all treatment plots were surveyed. An incidence grading survey was conducted according to the Grade and investigation method of tobacco diseases and insect pests GB/T23222-2008, and an incidence rate and a disease index were counted for each treatment plot.

[1] = Stability of sample solutions in the dark/under light; format: physicochemical
Method in brief: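 Salt in water, or acidic reference in 30–50% aqueous ethanol, at about 10 ppm; UV absorbance scanned 200–800 nm at 0, 1, 2, 3 h, stored at 25° C dark or under 30,000 lux light. Relative content = max-peak absorbance at each time divided by 0 h value (100%).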

rice = test: Rice yield in the sheath blight field experiment; format: in vivo, rice (Nanjing 9108); settings: 3.0 mg/mu sprayed 3 times
Description: A test sample was dissolved, diluted, thoroughly stirred, and then applied, with an application area of 3 mu for each treatment. The harvesting was conducted on Nov. 8, 2021. On the eve of harvesting, the yield composition and structure were investigated. Then a yield per mu was measured.

chlorophyllase = test: In vitro chlorophyllase-inhibiting activity test; format: biochemical, mung bean; settings: substrate chlorophyll 120 ppm, sample 0.3 ppm to 30.0 ppm
Description: A chlorophyllase inhibition rate of a salt sample solution at each concentration was determined, and an IC50 value for a chlorophyllase inhibition activity of a salt sample was calculated.

## sodium iron chlorin [Example 21]
tobacco; 0.05 ppm sprayed twice
  Leaf length: 76.0 cm
  Leaf width: 28.5 cm
  Plant height: 114.2 cm
  Weight/leaf: 8.4 g
  Yield: 133.75 kg/mu
  Yield increase rate: 9.4%
tobacco; 0.10 ppm sprayed twice
  Leaf length: 77.2 cm
  Leaf width: 28.9 cm
  Plant height: 116.7 cm
  Weight/leaf: 8.7 g
  Yield: 138.67 kg/mu
  Yield increase rate: 13.5%
tobacco; 0.20 ppm sprayed twice
  Leaf length: 75.6 cm
  Leaf width: 28.4 cm
  Plant height: 114.3 cm
  Weight/leaf: 8.4 g
  Yield: 133.59 kg/mu
  Yield increase rate: 9.3%
tobacco; 0.30 ppm sprayed twice
  Leaf length: 74.7 cm
  Leaf width: 28 cm
  Plant height: 114.5 cm
  Weight/leaf: 8.3 g
  Yield: 132.54 kg/mu
  Yield increase rate: 8.5%
Phytophthora capsici
  Control effect: 71.89%
  Disease index: 24.36
Mosaic virus; 0.05 ppm sprayed twice
  Disease index: 8.94
  Relative control effect: 65.48%
Mosaic virus; 0.10 ppm sprayed twice
  Disease index: 8.77
  Relative control effect: 66.13%
Mosaic virus; 0.20 ppm sprayed twice
  Disease index: 8.15
  Relative control effect: 71.00%
[1]; in the dark, 25° C., 0 h
  Relative content: 100.0%
[1]; in the dark, 25° C., 1 h
  Relative content: 99.51%
[1]; in the dark, 25° C., 2 h
  Relative content: 99.60%
[1]; in the dark, 25° C., 3 h
  Relative content: 99.43%
[1]; under light 30,000 lux, 0 h
  Relative content: 100.00%
[1]; under light 30,000 lux, 1 h, salts in water, acidic reference in 30% to 50% ethanol
  Relative content: 69.35%
[1]; under light 30,000 lux, 2 h, salts in water, acidic reference in 30% to 50% ethanol
  Relative content: 59.05%
[1]; under light 30,000 lux, 3 h, salts in water, acidic reference in 30% to 50% ethanol
  Relative content: 54.02%
rice
  Ear number per mu: 26.14 10,000
  Filled grain number per ear: 99.93
  Thousand-grain weight: 27.00 g
  Yield: 705.38 kg/mu
rice; versus clear water
  Yield increase rate: 11.46%
chlorophyllase
  IC50 for chlorophyllase inhibition activity: 5.22 ppm
